Source: ChEMBL document CHEMBL4330108, “The association between anti-tumor potency and structure-activity of protein-kinases inhibitors based on quinazoline molecular skeleton” (Bioorg Med Chem, 2019)
pIC50: −log10 of the molar value. Values belong to the compound of their own block, whether it stands above or below them.

Experiments:
[1] = Inhibition of PI3K (unknown origin); design: species or system Homo sapiens
Histone deacetylase 1 = Histone deacetylase 1 (Homo sapiens, UniProt Q13547); assay: Inhibition of HDAC1 (unknown origin) using HDAC substrate by AFC probe based immunoprecipitation assay
[2] = molecular target: Serine/threonine-protein kinase B-raf (Homo sapiens) (UniProt P15056); assay: Inhibition of wild-type B-Raf (unknown origin) at 10 uM relative to control
[3] = molecular target: T1, Vascular endothelial growth factor receptor 2 (Homo sapiens, UniProt P35968); assay: Inhibition of VEGFR2 (unknown origin) using FAM-labelled peptide as substrate measured after 10 mins
[4] = molecular target: Epidermal growth factor receptor (Homo sapiens, UniProt P00533); assay: Inhibition of EGFR (unknown origin)
[5] = molecular target: Receptor tyrosine-protein kinase erbB-2 (Homo sapiens, UniProt P04626); assay: Inhibition of HER2 (unknown origin)
[6] = molecular target: Vascular endothelial growth factor receptor 1 (Homo sapiens, UniProt P17948); assay: Inhibition of VEGFR1 (unknown origin)
[7] = Inhibition of PI3K (unknown origin) using PIP2 as substrate measured after 2 hrs by luciferase-luciferin […] assay; design: species or system Homo sapiens
[8] = molecular target: T1, Vascular endothelial growth factor receptor 2
[9] = molecular target: Vascular endothelial growth factor receptor 3 (Homo sapiens, UniProt P35916); assay: Inhibition of VEGFR3 (unknown origin)
[10] = molecular target: Serine/threonine-protein kinase B-raf (Homo sapiens, UniProt P15056, V600E); assay: Inhibition of recombinant human GST-fused B-Raf V600E mutant using MEK1 as substrate measured after 60 mins by HTRF assay
[11] = Inhibition of bovine brain PI3K using phosphatidylinositol as substrate preincubated for 5 mins followed by [gamma-32P]ATP addition and measured after 10 mins by liquid scintillation counting method; design: species or system Bos taurus

Vascular endothelial growth factor receptor 3, sequence (P35916 whole entry, the tested form may be a part): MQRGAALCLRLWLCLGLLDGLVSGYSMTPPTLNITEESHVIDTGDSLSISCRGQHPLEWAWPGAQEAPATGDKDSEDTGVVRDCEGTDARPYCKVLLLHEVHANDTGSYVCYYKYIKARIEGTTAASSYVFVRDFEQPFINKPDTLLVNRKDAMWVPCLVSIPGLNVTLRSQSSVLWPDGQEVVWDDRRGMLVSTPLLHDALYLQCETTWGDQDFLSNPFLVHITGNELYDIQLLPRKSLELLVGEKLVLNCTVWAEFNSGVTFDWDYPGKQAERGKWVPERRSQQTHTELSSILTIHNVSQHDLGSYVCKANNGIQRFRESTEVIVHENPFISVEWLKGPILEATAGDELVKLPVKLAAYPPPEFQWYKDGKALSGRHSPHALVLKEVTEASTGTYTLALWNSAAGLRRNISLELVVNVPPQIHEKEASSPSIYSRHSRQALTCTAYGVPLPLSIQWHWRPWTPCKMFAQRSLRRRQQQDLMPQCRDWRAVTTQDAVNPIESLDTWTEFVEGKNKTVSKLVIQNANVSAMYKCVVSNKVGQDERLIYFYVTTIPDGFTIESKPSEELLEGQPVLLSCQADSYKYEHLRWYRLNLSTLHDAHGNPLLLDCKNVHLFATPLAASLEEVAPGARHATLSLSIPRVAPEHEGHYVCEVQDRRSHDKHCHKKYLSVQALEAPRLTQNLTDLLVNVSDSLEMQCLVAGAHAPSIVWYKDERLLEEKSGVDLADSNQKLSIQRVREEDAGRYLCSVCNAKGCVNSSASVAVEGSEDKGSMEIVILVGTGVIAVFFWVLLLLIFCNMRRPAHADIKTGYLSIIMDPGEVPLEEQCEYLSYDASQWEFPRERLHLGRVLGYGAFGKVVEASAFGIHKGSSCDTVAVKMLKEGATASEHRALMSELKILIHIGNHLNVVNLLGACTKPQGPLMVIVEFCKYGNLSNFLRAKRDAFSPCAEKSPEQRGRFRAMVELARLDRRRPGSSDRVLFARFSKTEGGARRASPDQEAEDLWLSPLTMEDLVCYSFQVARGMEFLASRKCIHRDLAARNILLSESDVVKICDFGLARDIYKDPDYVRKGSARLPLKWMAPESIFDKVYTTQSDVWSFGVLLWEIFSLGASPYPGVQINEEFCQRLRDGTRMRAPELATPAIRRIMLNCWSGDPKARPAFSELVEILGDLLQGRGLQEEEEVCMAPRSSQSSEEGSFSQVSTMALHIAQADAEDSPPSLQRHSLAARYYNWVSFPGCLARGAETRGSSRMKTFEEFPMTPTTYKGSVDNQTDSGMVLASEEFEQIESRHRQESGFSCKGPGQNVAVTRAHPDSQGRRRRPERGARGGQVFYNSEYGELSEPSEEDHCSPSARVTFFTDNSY
Vascular endothelial growth factor receptor 1, sequence (P17948 whole entry): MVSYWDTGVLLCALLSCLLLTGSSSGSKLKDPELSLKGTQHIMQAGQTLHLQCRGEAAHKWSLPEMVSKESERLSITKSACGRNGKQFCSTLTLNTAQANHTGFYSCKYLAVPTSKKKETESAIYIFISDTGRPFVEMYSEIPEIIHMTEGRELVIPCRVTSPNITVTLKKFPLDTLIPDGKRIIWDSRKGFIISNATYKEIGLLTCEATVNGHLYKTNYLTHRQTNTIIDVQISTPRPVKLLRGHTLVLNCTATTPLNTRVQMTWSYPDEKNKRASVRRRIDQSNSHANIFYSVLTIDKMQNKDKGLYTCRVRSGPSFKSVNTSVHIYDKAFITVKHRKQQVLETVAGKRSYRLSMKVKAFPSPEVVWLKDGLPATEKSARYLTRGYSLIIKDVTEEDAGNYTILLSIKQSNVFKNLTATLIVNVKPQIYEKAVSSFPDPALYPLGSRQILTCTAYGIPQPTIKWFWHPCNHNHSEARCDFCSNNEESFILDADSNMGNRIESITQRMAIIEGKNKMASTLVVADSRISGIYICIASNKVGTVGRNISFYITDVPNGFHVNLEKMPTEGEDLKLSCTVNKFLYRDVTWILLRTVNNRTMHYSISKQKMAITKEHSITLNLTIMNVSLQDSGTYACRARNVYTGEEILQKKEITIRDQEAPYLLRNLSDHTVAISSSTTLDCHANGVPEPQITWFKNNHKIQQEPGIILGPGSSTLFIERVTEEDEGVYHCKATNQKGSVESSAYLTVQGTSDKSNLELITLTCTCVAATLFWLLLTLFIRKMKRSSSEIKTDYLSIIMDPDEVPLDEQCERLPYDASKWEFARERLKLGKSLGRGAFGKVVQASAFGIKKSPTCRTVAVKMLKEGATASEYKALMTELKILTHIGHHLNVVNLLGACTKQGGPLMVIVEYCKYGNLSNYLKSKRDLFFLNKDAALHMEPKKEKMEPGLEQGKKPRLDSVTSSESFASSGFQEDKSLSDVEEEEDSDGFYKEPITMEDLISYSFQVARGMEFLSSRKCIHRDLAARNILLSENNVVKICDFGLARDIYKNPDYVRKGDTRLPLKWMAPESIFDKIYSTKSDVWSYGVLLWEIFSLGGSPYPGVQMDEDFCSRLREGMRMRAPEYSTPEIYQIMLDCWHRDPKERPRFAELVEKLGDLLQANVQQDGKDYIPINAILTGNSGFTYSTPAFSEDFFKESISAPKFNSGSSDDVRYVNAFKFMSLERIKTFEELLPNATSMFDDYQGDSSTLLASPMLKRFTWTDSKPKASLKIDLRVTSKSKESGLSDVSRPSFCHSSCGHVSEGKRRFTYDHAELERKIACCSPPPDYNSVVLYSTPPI
T1 sequence (P35968 whole entry): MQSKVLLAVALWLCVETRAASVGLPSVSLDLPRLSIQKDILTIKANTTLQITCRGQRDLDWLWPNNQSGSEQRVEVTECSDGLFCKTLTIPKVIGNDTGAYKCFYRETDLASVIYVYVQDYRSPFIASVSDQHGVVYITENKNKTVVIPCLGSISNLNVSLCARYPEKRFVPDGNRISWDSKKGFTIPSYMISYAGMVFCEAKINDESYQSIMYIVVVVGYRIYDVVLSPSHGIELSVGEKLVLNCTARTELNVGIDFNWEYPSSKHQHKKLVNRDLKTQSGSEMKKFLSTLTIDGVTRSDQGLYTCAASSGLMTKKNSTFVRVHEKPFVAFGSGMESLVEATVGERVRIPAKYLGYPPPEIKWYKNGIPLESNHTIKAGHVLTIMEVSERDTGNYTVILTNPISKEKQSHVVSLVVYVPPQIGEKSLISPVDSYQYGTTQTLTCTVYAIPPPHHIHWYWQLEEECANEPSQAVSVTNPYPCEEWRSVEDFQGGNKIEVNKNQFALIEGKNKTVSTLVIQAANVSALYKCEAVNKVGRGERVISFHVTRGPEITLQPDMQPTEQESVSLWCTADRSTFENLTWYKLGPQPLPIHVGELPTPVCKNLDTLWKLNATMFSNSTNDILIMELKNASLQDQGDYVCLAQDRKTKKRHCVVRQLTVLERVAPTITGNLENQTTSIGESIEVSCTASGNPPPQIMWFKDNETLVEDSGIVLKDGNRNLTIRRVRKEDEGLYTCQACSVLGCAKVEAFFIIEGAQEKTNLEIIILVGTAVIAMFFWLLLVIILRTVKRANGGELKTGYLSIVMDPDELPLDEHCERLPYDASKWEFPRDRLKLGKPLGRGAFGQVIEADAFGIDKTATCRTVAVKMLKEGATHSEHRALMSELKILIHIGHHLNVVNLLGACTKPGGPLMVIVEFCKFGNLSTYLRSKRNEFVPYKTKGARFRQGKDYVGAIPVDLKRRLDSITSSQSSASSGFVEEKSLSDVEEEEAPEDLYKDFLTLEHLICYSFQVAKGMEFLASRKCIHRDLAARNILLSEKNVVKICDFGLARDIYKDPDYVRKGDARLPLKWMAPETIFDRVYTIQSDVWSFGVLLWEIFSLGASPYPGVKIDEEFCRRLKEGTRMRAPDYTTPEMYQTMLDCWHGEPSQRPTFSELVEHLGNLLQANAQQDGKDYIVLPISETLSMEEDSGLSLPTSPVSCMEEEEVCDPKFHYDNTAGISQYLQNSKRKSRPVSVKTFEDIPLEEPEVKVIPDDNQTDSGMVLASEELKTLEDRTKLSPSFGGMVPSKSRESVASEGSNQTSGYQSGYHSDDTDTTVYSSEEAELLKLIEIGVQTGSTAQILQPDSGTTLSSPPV
Serine/threonine-protein kinase B-raf, sequence (P15056 2-766 V600E limits assumed): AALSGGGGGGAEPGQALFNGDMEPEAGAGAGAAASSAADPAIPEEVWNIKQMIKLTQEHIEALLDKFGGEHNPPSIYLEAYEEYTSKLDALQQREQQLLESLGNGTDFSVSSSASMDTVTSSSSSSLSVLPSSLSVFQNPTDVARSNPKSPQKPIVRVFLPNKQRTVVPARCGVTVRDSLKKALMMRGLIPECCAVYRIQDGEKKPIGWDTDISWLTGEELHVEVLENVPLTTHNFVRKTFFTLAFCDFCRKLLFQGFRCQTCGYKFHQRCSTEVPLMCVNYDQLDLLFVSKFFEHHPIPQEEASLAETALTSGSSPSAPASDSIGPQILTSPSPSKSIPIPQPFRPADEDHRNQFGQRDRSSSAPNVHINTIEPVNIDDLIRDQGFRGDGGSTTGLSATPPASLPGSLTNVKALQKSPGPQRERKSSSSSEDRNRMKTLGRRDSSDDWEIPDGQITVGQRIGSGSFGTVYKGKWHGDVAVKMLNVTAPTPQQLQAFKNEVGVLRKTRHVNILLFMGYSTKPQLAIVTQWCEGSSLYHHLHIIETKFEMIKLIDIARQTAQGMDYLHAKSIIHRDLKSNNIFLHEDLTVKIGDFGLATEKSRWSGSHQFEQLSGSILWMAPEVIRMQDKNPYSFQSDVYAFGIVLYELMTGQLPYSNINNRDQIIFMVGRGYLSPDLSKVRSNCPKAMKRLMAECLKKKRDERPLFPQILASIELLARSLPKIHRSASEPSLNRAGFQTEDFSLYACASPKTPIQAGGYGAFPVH

SMILES: c1ccc2c(c1)ccn2-c1ncnc2ccc(-c3ccc4[nH]ccc4c3)cc12
pIC50 [1]: 5.00 to 7.00

SMILES: COc1cc2ncnc(Nc3ccc(CC(=O)Nc4cc(-c5cccs5)ccc4N)cc3)c2cc1OC
pIC50 (Histone deacetylase 1): 6.75

SMILES: CCOc1cc2ncc(C#N)c(Nc3ccc(OCc4ccccn4)c(F)c3)c2cc1NC(=O)/C=C/CN(C)C
pIC50 [4]: 7.04
pIC50 [5]: 7.23

SMILES: CCOc1cc2ncc(C#N)c(Nc3ccc(Cl)c(F)c3)c2cc1NC(=O)/C=C/CN(C)C
pIC50 [6]: 5.90

SMILES: Cc1cc(N2CCC(F)(F)C2)cc2c(N3CCc4ccc(C(=O)N5CCC(N)CC5)cc4C3)ncnc12
pIC50 [7]: > 6.30

SMILES: COc1cccc(NC(=O)N2CCCc3cc(Nc4ncnc5cc(OC)c(OC)cc45)ccc32)c1
pIC50 [6]: 8.26
pIC50 [8]: 7.28
pIC50 [9]: 7.85

SMILES: Cc1ccc(CC[C@@H]2CCN2C)c(NC(=O)Nc2cccc(Oc3ccc4nc[nH]c(=O)c4c3)c2)c1
pIC50 [10]: 8.41

SMILES: COc1cc2ncnc(Nc3ccc4c(c3)CCCN4C(=O)Nc3ccc(C(C)=O)cc3)c2cc1OC
pIC50 [6]: 8.02
pIC50 [8]: 7.52
pIC50 [9]: 7.76

SMILES: COc1cc2ncnc(Nc3ccc4c(c3)CCCN4C(=O)Nc3cccc(Cl)c3)c2cc1OC
pIC50 [6]: 8.15
pIC50 [8]: 7.52
pIC50 [9]: 8.11

SMILES: O=c1cc(N2CCOCC2)oc2c(-c3ccccc3)cccc12 [LY-294002]
pIC50 [11]: 6.00

Next, values leading:

inhibition [2]: 98.9%
SMILES: CCOCCCOc1cc2ncnc(Oc3ccc(NC(=O)Nc4ccc(F)c(C(F)(F)F)c4)cc3)c2cc1N

pIC50 [3]: 7.11
SMILES: Cc1cccc(NC(=O)Nc2ccc(Nc3ccc([N+](=O)[O-])c4ncnc(O)c34)cc2)c1

pIC50 [3]: 7.35
SMILES: O=C(Nc1ccc(Nc2ccc([N+](=O)[O-])c3ncnc(O)c23)cc1)Nc1cccc(C(F)(F)F)c1

pIC50 [3]: 7.92
SMILES: O=C(Nc1ccc(Nc2ccc([N+](=O)[O-])c3ncnc(O)c23)cc1)Nc1cc(C(F)(F)F)ccc1Cl

pIC50 [3]: 7.38
SMILES: O=C(Nc1ccc(Nc2ccc([N+](=O)[O-])c3ncnc(O)c23)cc1)Nc1cc(Cl)ccc1Cl
